37 compounds from ChEMBL document CHEMBL4483862, “Open-source discovery of chemical leads for next-generation chemoprotective antimalarials” (2018) can be followed below.

The assay concerns Plasmodium berghei. As to the kind of experiment: Luciferase/luciferin-expressing antifolate-resistant parasites were used to infect a culture of HepG2 cells that were pre-incubated with compounds. Infected hepatocytes emit light due to the luciferase reaction. Assay results are presented as the percent inhibition of light emission compared to control. […]. The conditions noted are these: sporozoite; for IC90: read-out: LUCIFERASE INFECTION ASSAY - IC90. The format is functional.

[1] abbreviates: read-out: LUCIFERASE INFECTION ASSAY - IC50.

Bounds are passed on as bounds.

As to `CCCN(CCC)c1ccc(/C=C2\C=c3c(O)cccc3=C2O)cc1`, the IC90 is 3.37 µM. Also, the IC50 (HEPG2TOX_HILL_SLOPE 2.7, HEPG2TOX_R_SQUARED 0.839, PBLUC_HILL_SLOPE 2.95, PBLUC_R_SQUARED 0.682, read-out: LUCIFERASE INFECTION ASSAY - IC50) came to 1.6 µM.
With `Cc1cc(C(=O)CSc2nc3ccccc3[nH]2)c(C)n1CC1CCCO1` (centres undefined), the 90% effect concentration (IC90) was 4.43 µM. Moreover, the half-inhibitory concentration (IC50) (HEPG2TOX_HILL_SLOPE 3.03, HEPG2TOX_R_SQUARED 0.337, PBLUC_HILL_SLOPE 0.528, 1.10, PBLUC_R_SQUARED 0.856, 0.809, read-out: LUCIFERASE INFECTION ASSAY - IC50) was determined as 0.144 µM.
With `O=C(Nc1nc2ccccc2[nH]1)c1cccnc1Nc1ccccc1F`, the IC90 was found to be 3.81 µM. Besides, under “HEPG2TOX_HILL_SLOPE 1.38, HEPG2TOX_R_SQUARED 0.863, PBLUC_HILL_SLOPE 3.37, PBLUC_R_SQUARED 0.741, read-out: LUCIFERASE INFECTION ASSAY - IC50”, the IC50 was 1.98 µM.
Regarding `CSc1sc(C(=O)N/N=C/c2ccc(Cl)cc2)cc1S(=O)(=O)C(C)C`, the IC90 amounted to 5.75 µM. Further, the 50% inhibitory concentration (IC50) (HEPG2TOX_HILL_SLOPE 1.17, HEPG2TOX_R_SQUARED 0.979, PBLUC_HILL_SLOPE 3, PBLUC_R_SQUARED 0.696, read-out: LUCIFERASE INFECTION ASSAY - IC50) was found to be 2.77 µM.
As for `Cc1nc(=O)c2c([nH]1)NC(=O)CC2c1cc(F)ccc1F` (centres undefined), the IC90 was more than 11.3 µM. In addition, the IC50 under setting [1] is more than 11.3 µM.
As to `CCn1c(-c2cc(C(=O)c3ccccc3O)c[nH]2)nc2ccccc21`, the IC90 was more than 10 µM. Besides, the IC50 (HEPG2TOX_HILL_SLOPE 7.78, HEPG2TOX_R_SQUARED 0.356, PBLUC_HILL_SLOPE 1.9, PBLUC_R_SQUARED 0.373, read-out: LUCIFERASE INFECTION ASSAY - IC50) was 6.07 µM.
For `CS(=O)(=O)c1cccc(S(=O)(=O)Oc2ccc(C34CC5CC(CC(C5)C3)C4)cc2)c1`, the 90% effect concentration (IC90) was more than 10 µM. Moreover, the IC50 (HEPG2TOX_HILL_SLOPE 12.1, HEPG2TOX_R_SQUARED 0.709, PBLUC_HILL_SLOPE 2.69, PBLUC_R_SQUARED 0.465, read-out: LUCIFERASE INFECTION ASSAY - IC50) was 4.49 µM.
As for `O=C(Nc1ccc(F)c(Cl)c1)N1CCc2nc(Nc3cc(Cl)cc(Cl)c3)ncc2C1`, the IC90 was more than 7.07 µM. The half-maximal inhibitory concentration (IC50) under setting [1] is more than 7.07 µM.
`COc1ccccc1-c1ccc2ncc(-c3cccc(C(C)=O)c3)n2n1`: the IC90 amounted to 8.88 µM. For the same compound, the half-maximal inhibitory concentration (IC50) (HEPG2TOX_HILL_SLOPE 0.183, HEPG2TOX_R_SQUARED 0.285, PBLUC_HILL_SLOPE 2.88, PBLUC_R_SQUARED 0.586, read-out: LUCIFERASE INFECTION ASSAY - IC50) was found to be 4.14 µM.
With `CCOc1ccccc1C(=O)NCCc1cccc(Cl)c1`, the IC90 was more than 10.9 µM. In addition, the IC50 under setting [1] is more than 10.9 µM.
Regarding `Cc1ccc(C)n1-c1nc2ccc(C(=O)NCC(O)c3ccccc3)cc2s1` (centres undefined), the IC90 came to 4.67 µM. The IC50 (HEPG2TOX_HILL_SLOPE 1.7, HEPG2TOX_R_SQUARED 0.986, PBLUC_HILL_SLOPE 2.65, PBLUC_R_SQUARED 0.703, read-out: LUCIFERASE INFECTION ASSAY - IC50) worked out at 2.04 µM.
Turning to `CC1CCc2c(sc3nc(CN4CCOCC4)nc(Oc4ccc(Cl)c5cccnc45)c23)C1` (centres undefined), the IC90 is more than 10 µM. The IC50 under setting [1] was more than 10 µM.
Take `CCOc1ccc(-n2c(SCC(=O)c3c(N)n(C)c(=O)n(C)c3=O)nnc2-c2ccccc2Cl)cc1`: the IC90 was found to be 3.67 µM. Also, the IC50 under setting [1] was 3.28 µM.
The corresponding values for `Cc1ccc(S(=O)(=O)NC(=O)c2c(C(=O)NS(=O)(=O)c3ccc(C)cc3)c(C)n(-c3ccc(N(C)C)cc3)c2C)cc1` are more than 10 µM and more than 10 µM.
As to `Cc1ccc(NC2=C(Cl)C(=O)c3ccccc3C2=O)cc1`, the concentration for an effect of 90% (IC90) stood at 7.81 µM. In addition, the half-maximal inhibitory concentration (IC50) (HEPG2TOX_HILL_SLOPE 4.14, HEPG2TOX_R_SQUARED 0.984, PBLUC_HILL_SLOPE 5.35, PBLUC_R_SQUARED 0.565, read-out: LUCIFERASE INFECTION ASSAY - IC50) turned out to be 5.18 µM.
With `CS(=O)(=O)c1ccc(-c2cnc(N)c(-c3cccc(O)c3)c2)cc1`, the 90% effect concentration (IC90) amounted to 3.71 µM. Also, the IC50 (PBLUC_HILL_SLOPE 17.6, PBLUC_R_SQUARED 0.332, read-out: LUCIFERASE INFECTION ASSAY - IC50) is 3.27 µM.
As for `CNc1ccc(CSc2ccc(C(F)(F)F)cn2)cc1C(F)(F)F`, the IC90 is more than 9.01 µM. Further, the IC50 under setting [1] is more than 9.01 µM.
In the case of `N#CC1C(=N)Oc2c(ccc3ccccc23)C1c1ccc(Cl)cc1` (centres undefined), the IC90 was more than 9.92 µM. In addition, the concentration for half-maximal inhibition (IC50) under setting [1] is more than 9.92 µM.
As to `Cc1ccccc1-n1c(SCC(=O)NC2CCCCC2)nc(O)cc1=O`, the concentration for an effect of 90% (IC90) was 3.36 µM. Moreover, the IC50 (PBLUC_HILL_SLOPE 12.2, PBLUC_R_SQUARED 0.38, read-out: LUCIFERASE INFECTION ASSAY - IC50) was determined as 2.81 µM.
On to `O=[N+]([O-])c1ccc(Nc2nc3ccc(Cl)cc3o2)cc1`, for which the IC90 was more than 10 µM. Also, the IC50 under setting [1] is more than 10 µM.
Consider `Cn1c(=O)c(C2=NN(C(=O)c3cccs3)C(c3ccco3)C2)c(-c2ccccc2)c2cc(Cl)ccc21` (centres undefined), for which the 90% effect concentration (IC90) is more than 10 µM. Moreover, where the note is “FFLUC_HILL_SLOPE 47.1, FFLUC_R_SQUARED 0.757, PBLUC_HILL_SLOPE 11.3, PBLUC_R_SQUARED 0.251, read-out: LUCIFERASE INFECTION ASSAY - IC50”, the IC50 was 9.29 µM.
`CN(C)CCNc1nc(-c2ccco2)c2c(c1C#N)CCCC2`: the 90% effect concentration (IC90) is more than 10.6 µM. In addition, for the setting “HEPG2TOX_HILL_SLOPE 3.21, HEPG2TOX_R_SQUARED 0.873, PBLUC_HILL_SLOPE 1.18, PBLUC_R_SQUARED 0.659, read-out: LUCIFERASE INFECTION ASSAY - IC50”, the half-inhibitory concentration (IC50) is 3.31 µM.
Turning to `CCOc1ccc(/C=C2\CCCC3C2=NN(C(=O)C2(S(=O)(=O)c4ccccc4)CC2)C3c2ccc(OCC)cc2)cc1` (centres undefined), the 90% effect concentration (IC90) was more than 10 µM. Further, the IC50 under setting [1] was found to be 5.63 µM.
Regarding `O=C(Nc1ccccc1)Nc1cc(NC(=O)Nc2ccccc2)cc(C(F)(F)F)c1`, the IC90 was more than 7.96 µM. The 50% inhibitory concentration (IC50) (HEPG2TOX_HILL_SLOPE 2.43, HEPG2TOX_R_SQUARED 0.913, read-out: LUCIFERASE INFECTION ASSAY - IC50) is more than 7.96 µM.
Turning to `O=c1ccn(-c2ccc(Cl)cc2)nc1-c1ccnc(-c2ccccc2)n1`, the IC90 was more than 9.15 µM. For the same compound, the 50% inhibitory concentration (IC50) under setting [1] was more than 9.15 µM.
Turning to `CSc1sc(C(=O)Nc2cc(C(F)(F)F)cc(C(F)(F)F)c2)c(-c2ccc(Cl)cc2)c1C#N`, the 90% effect concentration (IC90) came out at 2.43 µM. For the same compound, the IC50 under setting [1] turned out to be 0.839 µM.
For the compound `CC(C)c1ccc(-n2c(Sc3ccc(C(F)(F)F)cc3[N+](=O)[O-])nnc2-c2ccc(C(C)(C)C)cc2)cc1`, the IC90 was more than 6.1 µM. Also, where the note is “PBLUC_HILL_SLOPE 12.8, PBLUC_R_SQUARED 0.26, read-out: LUCIFERASE INFECTION ASSAY - IC50”, the half-inhibitory concentration (IC50) was found to be 5.26 µM.
On to `COc1ccc(C(C)(O)c2nc(-c3cccc(F)c3)cs2)cc1` (centres undefined), for which the IC90 turned out to be 5.23 µM. Also, the IC50 under setting [1] stood at 5.17 µM.
`COc1cccc2cc(/C=C/c3nc4ccccc4s3)oc12`: the IC90 is 4.1 µM. For the same compound, the half-inhibitory concentration (IC50) (PBLUC_HILL_SLOPE 8.93, PBLUC_R_SQUARED 0.0906, read-out: LUCIFERASE INFECTION ASSAY - IC50) came to 3.2 µM.
For `CCOC(=O)N1CCC(NCC(O)COc2ccc(C(C)(C)C)cc2)CC1` (centres undefined), the concentration for an effect of 90% (IC90) is more than 10 µM. For the same compound, the half-maximal inhibitory concentration (IC50) (PBLUC_HILL_SLOPE 1.54, PBLUC_R_SQUARED 0.688, read-out: LUCIFERASE INFECTION ASSAY - IC50) was determined as 4.08 µM.
For `Cc1cc(=O)oc2cc(NCC(=O)Nc3cc4c(cc3Cl)OCCO4)ccc12`, the IC90 was more than 10 µM. Under setting [1], the IC50 was more than 10 µM.
Consider `CCOc1cc(/C=C2\CN(C)C/C(=C\c3ccc(O)c(OCC)c3)C2=O)ccc1O`, for which the 90% effect concentration (IC90) worked out at 6.75 µM. Besides, the IC50 (HEPG2TOX_HILL_SLOPE 12.2, HEPG2TOX_R_SQUARED 0.94, PBLUC_HILL_SLOPE 1.92, PBLUC_R_SQUARED 0.794, read-out: LUCIFERASE INFECTION ASSAY - IC50) was found to be 2.16 µM.
Take `COc1cccc(C2c3sc(=O)[nH]c3SC3C4CCC(C4)C23)c1O` (centres undefined): the IC90 is more than 9.13 µM. Also, the IC50 (FFLUC_HILL_SLOPE 0.571, FFLUC_R_SQUARED 0.432, read-out: LUCIFERASE INFECTION ASSAY - IC50) is more than 9.13 µM.
Take `CC(=O)c1c(C)[nH]c(C(=O)Nc2ccc(C)c(S(=O)(=O)Nc3ccc(C)cc3C)c2)c1C`: the IC90 is more than 10 µM. The 50% inhibitory concentration (IC50) (HEPG2TOX_HILL_SLOPE 7.64, HEPG2TOX_R_SQUARED 0.623, PBLUC_HILL_SLOPE 8.53, PBLUC_R_SQUARED 0.404, read-out: LUCIFERASE INFECTION ASSAY - IC50) worked out at 9.43 µM.
As for `O=C(N/N=C/c1c(-c2ccccc2)n(-c2ccccc2)c2ccccc12)C1COc2ccccc2O1` (centres undefined), the IC90 was more than 10 µM. Further, the 50% inhibitory concentration (IC50) (FFLUC_HILL_SLOPE 2.45, FFLUC_R_SQUARED 0.636, PBLUC_HILL_SLOPE 2.61, PBLUC_R_SQUARED 0.591, read-out: LUCIFERASE INFECTION ASSAY - IC50) worked out at 5.83 µM.
Turning to `O=C(Nc1ccccc1C(=O)OCC(=O)N1c2ccccc2Sc2ccccc21)c1ccco1`, the concentration for an effect of 90% (IC90) was more than 10 µM. Moreover, where the note is “FFLUC_HILL_SLOPE 10.6, FFLUC_R_SQUARED 0.388, PBLUC_HILL_SLOPE 2.08, PBLUC_R_SQUARED 0.607, read-out: LUCIFERASE INFECTION ASSAY - IC50”, the IC50 was determined as 7.58 µM.
For the compound `NC(Cc1ccc(C(F)(F)F)cc1)c1csc(NC(=O)Nc2ccccc2Cc2ccccc2)n1` (centres undefined), the concentration for an effect of 90% (IC90) is 6.33 µM. Also, for the setting “PBLUC_HILL_SLOPE 25.9, PBLUC_R_SQUARED 0.261, read-out: LUCIFERASE INFECTION ASSAY - IC50”, the IC50 stood at 5.82 µM.
